In ChEMBL document CHEMBL1145029, “Design, synthesis, and evaluation of benzothiadiazepine hydroxamates as selective tumor necrosis factor-alpha converting enzyme inhibitors” (J Med Chem, 2003):

Experiments:
[1] = biological target: Matrix metalloproteinase-9 (Homo sapiens, UniProt P14780); assay: In vitro inhibitory activity against broad spectrum matrix metalloprotease-9 (MMP-9)
Interstitial collagenase = biological target: T1, Interstitial collagenase (Homo sapiens, UniProt P03956); assay: In vitro inhibitory activity against broad spectrum matrix metalloprotease-1 (MMP-1)
T1 sequence (P03956 whole entry): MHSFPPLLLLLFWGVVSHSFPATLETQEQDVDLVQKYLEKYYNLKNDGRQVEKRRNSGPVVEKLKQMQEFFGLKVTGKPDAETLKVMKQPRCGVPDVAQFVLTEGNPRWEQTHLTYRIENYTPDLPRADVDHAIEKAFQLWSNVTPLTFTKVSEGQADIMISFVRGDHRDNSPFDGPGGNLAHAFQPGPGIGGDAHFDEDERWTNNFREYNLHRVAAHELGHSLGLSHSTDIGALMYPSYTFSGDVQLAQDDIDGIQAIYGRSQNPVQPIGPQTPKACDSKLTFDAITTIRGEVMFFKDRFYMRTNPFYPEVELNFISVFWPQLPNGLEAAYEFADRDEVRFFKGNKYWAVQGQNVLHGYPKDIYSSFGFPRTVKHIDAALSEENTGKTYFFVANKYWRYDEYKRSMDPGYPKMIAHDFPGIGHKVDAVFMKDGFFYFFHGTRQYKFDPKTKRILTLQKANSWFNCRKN

[2] = biological target: 72 kDa type IV collagenase (Homo sapiens, UniProt P08253)
Description: In vitro inhibitory activity against broad spectrum matrix metalloprotease-2 (MMP-2)

[3] = biological target: T2, Disintegrin and metalloproteinase domain-containing protein 17 (Homo sapiens, UniProt P78536); assay: Ability to suppress the formation of TNF-aplha in human peripheral blood mononuclear cell assay(PBMC); assay type: functional
[4] = biological target: T2, Disintegrin and metalloproteinase domain-containing protein 17; assay: Ability to suppress the formation of TNF-aplha in human whole blood assay (WBA); assay type: functional, tissue-based

Chain of Matrix metalloproteinase-9 (P14780 whole entry): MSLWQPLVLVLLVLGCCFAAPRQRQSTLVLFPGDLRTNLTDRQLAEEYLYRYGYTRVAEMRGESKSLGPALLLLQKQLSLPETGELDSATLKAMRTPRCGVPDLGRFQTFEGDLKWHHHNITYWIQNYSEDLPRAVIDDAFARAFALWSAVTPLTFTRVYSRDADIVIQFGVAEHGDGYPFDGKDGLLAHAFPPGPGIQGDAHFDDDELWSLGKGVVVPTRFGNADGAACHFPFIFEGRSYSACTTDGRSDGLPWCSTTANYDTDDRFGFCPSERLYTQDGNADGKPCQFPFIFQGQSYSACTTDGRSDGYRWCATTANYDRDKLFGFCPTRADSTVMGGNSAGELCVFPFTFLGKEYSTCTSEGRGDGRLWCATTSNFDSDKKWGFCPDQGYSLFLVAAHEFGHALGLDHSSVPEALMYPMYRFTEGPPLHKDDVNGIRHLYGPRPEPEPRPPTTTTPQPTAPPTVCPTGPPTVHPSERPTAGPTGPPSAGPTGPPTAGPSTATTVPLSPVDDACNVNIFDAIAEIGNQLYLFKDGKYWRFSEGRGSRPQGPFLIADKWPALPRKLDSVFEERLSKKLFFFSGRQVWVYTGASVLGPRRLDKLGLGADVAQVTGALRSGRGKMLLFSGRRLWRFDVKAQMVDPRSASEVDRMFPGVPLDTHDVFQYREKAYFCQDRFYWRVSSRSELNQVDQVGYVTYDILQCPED
T2 sequence (P78536 whole entry, the tested form may be a part): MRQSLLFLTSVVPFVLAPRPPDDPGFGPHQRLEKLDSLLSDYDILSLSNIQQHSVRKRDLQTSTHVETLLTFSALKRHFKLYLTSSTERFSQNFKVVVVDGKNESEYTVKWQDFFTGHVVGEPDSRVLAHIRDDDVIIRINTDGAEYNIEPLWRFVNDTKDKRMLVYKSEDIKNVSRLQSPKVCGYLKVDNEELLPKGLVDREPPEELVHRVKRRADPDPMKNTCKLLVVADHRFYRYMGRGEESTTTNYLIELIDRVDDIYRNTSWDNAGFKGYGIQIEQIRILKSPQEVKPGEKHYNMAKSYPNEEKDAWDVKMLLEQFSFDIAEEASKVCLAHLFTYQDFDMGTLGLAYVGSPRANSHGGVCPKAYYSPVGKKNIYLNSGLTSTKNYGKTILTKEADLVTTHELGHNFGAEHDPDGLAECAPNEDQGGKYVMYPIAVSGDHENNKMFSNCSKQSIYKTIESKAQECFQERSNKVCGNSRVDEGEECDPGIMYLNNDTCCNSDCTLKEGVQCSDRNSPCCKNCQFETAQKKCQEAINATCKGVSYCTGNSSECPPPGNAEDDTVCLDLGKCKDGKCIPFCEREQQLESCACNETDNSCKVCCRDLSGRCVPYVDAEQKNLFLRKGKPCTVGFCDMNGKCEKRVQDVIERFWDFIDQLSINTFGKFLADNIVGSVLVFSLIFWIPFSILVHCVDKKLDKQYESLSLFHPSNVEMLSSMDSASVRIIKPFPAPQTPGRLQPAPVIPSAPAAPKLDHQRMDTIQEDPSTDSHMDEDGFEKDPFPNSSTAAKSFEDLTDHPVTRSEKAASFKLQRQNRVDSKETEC
Chain of 72 kDa type IV collagenase (P08253 whole entry, the tested form may be a part): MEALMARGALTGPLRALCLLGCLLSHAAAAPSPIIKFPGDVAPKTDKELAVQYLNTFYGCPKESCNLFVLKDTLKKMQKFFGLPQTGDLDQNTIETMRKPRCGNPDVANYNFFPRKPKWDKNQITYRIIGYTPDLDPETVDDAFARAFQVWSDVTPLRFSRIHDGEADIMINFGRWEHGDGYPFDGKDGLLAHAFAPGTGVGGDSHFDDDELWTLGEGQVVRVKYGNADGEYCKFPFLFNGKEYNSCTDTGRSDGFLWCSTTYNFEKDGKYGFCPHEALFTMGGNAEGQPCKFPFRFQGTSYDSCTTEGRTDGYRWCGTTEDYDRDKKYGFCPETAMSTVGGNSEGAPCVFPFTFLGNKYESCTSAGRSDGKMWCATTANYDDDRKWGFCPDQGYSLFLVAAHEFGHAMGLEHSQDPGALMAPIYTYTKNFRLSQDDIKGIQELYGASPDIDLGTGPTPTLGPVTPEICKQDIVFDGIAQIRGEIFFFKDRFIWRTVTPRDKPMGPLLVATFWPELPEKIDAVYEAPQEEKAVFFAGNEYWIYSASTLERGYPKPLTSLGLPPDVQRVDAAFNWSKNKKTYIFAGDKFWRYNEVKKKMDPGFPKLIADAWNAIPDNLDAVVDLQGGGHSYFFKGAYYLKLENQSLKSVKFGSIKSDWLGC

Compound | Ki [1] | Ki (Interstitial collagenase) | Ki [2] | IC50 [3] | IC50 [4]
Cc1cc(C)cc(COc2ccc3c(c2)NCCN([C@H](C)C(=O)NO)S3(=O)=O)c1 | > 2130 nM | > 4950 nM | 136 nM | – | –
COc1ccc2c(c1)NCN([C@H](C)C(=O)NO)S2(=O)=O | 1050 nM | > 4950 nM | 312 nM | – | –
COc1ccc2c(c1)NCCN(CC(=O)NO)S2(=O)=O | > 2130 nM | > 4950 nM | 1500 nM | – | –
COc1cc(COc2ccc3c(c2)NCCN([C@@H](C(=O)NO)C(C)C)S3(=O)=O)cc(OC)c1 | 981 nM | > 4950 nM | 647 nM | 4000 nM | –
Cc1nc(COc2ccc3c(c2)NCCN([C@@H](C(=O)NO)C(C)C)S3(=O)=O)sc1C | > 2130 nM | > 4950 nM | 361 nM | 24500 nM | –
O=C(CN1CCNc2ccccc2S1(=O)=O)NO | > 2130 nM | > 4950 nM | 1920 nM | – | –
COc1cc(COc2ccc3c(c2)NCCN([C@H](CC(C)C)C(=O)NO)S3(=O)=O)cc(OC)c1 | > 2130 nM | > 4950 nM | 154 nM | 5400 nM | –
C[C@H](C(=O)NO)N1CCNc2ccccc2S1(=O)=O | 567 nM | > 4950 nM | 75 nM | – | –
COc1ccc2c(c1)NCCN([C@@H](C(=O)NO)C(C)C)S2(=O)=O | 751 nM | 732 nM | 52 nM | – | –
COc1cc(COc2ccc3c(c2)NCCN([C@H](CCCCNC(=O)OC(C)(C)C)C(=O)NO)S3(=O)=O)cc(OC)c1 | 118 nM | > 4950 nM | 32 nM | – | –
COC(=O)CC[C@H](C(=O)NO)N1CCNc2cc(OCc3cc(OC)cc(OC)c3)ccc2S1(=O)=O | > 2130 nM | > 4950 nM | 1590 nM | 7200 nM | –
CCOc1cc(COc2ccc3c(c2)NCCN([C@H](CCCC(=O)OC)C(=O)NO)S3(=O)=O)cc(OCC)c1 | > 2130 nM | > 4950 nM | 1380 nM | 1100 nM | 24000 nM
C[C@H](C(=O)NO)N1CCNc2cc(-c3ccccc3C(F)(F)F)ccc2S1(=O)=O | > 2130 nM | > 4950 nM | 2520 nM | – | –
COc1cc(CNc2ccc3c(c2)NCCN([C@H](CC(C)C)C(=O)NO)S3(=O)=O)cc(OC)c1 | 347 nM | > 4950 nM | 75 nM | – | –
C[C@H](C(=O)NO)N1CCNc2cc(OCc3cc(Cl)cc(Cl)c3)ccc2S1(=O)=O | 1210 nM | > 4950 nM | 49 nM | 940 nM | –
Cc1cc(COc2ccc3c(c2)NCCN([C@H](C)C(=O)NO)S3(=O)=O)cc(C)n1 | 1840 nM | > 4950 nM | 75 nM | 2900 nM | –
COc1cc(COc2ccc3c(c2)NCCN([C@H](C)C(=O)NO)S3(=O)=O)cc(OC)c1 | > 2130 nM | > 4950 nM | 491 nM | 770 nM | 28000 nM
CCOc1cc(COc2ccc3c(c2)NCCN([C@H](C)C(=O)NO)S3(=O)=O)cc(OCC)c1 | > 2130 nM | > 4950 nM | 690 nM | 4500 nM | –
COc1cc(COc2ccc3c(c2)NCCN([C@H](CCCCNS(C)(=O)=O)C(=O)NO)S3(=O)=O)cc(OC)c1 | > 2130 nM | > 4950 nM | 391 nM | 1900 nM | 38000 nM
CCOc1cc(COc2ccc3c(c2)NCCN([C@H](CCC(=O)OC)C(=O)NO)S3(=O)=O)cc(OCC)c1 | > 2130 nM | > 4950 nM | 960 nM | 6200 nM | –
Cc1cc(C)cc(C(=O)Nc2ccc3c(c2)NCCN([C@H](C)C(=O)NO)S3(=O)=O)c1 | 993 nM | > 4950 nM | 94 nM | – | –
CCOc1cc(COc2ccc3c(c2)NCCN([C@@H](C(=O)NO)C(C)C)S3(=O)=O)cc(OCC)c1 | > 2130 nM | > 4950 nM | 3000 nM | 8200 nM | –
COC(=O)CCC[C@H](C(=O)NO)N1CCNc2cc(OCc3cc(OC)cc(OC)c3)ccc2S1(=O)=O | > 2130 nM | > 4950 nM | 332 nM | 900 nM | –
COc1cc(COc2ccc3c(c2)NCCN([C@H](CCCCN)C(=O)NO)S3(=O)=O)cc(OC)c1 | > 2130 nM | > 4950 nM | 231 nM | – | –

The next compounds have a lower Ki [1] than those just listed; values first:

Ki [1] | Ki (Interstitial collagenase) | Ki [2] | IC50 [3] | IC50 [4] | Compound
3.6 nM | > 4950 nM | < 2.8 nM | – | – | C[C@H](C(=O)NO)N1CCNc2cc(OCc3ccccc3)ccc2S1(=O)=O
8 nM | 272 nM | < 2.8 nM | – | – | C[C@H](C(=O)NO)N1CCNc2cc(-c3ccccc3)ccc2S1(=O)=O
100 nM | 980 nM | < 2.8 nM | – | – | C[C@H](C(=O)NO)N1CCNc2cc(O)ccc2S1(=O)=O
< 2.1 nM | 548 nM | < 2.8 nM | 350 nM | – | CC(C)C[C@H](C(=O)NO)N1CCNc2cc(OCc3ccccc3)ccc2S1(=O)=O
96 nM | > 4950 nM | 85 nM | 470 nM | 1400 nM | C[C@H](C(=O)NO)N1CCNc2cc(Oc3cccc([N+](=O)[O-])c3)ccc2S1(=O)=O
< 2.1 nM | > 4950 nM | < 2.8 nM | – | – | COc1ccc(Oc2ccc3c(c2)NCCN([C@H](C)C(=O)NO)S3(=O)=O)cc1
104 nM | 1060 nM | – | – | – | COc1ccc2c(c1)NCCN([C@H](C)C(=O)NO)S2(=O)=O
7 nM | > 4950 nM | < 2.8 nM | 840 nM | – | C[C@H](C(=O)NO)N1CCNc2cc(Oc3ccc(C(F)(F)F)cc3)ccc2S1(=O)=O
80 nM | 479 nM | 11 nM | 9500 nM | – | CC(C)C[C@H](C(=O)NO)N1CCNc2cc(O)ccc2S1(=O)=O
19 nM | > 4950 nM | 8 nM | 1200 nM | 15000 nM | C[C@H](C(=O)NO)N1CCNc2cc(Oc3ccc([N+](=O)[O-])cc3)ccc2S1(=O)=O
< 2.1 nM | 2020 nM | < 2.8 nM | – | – | C[C@H](C(=O)NO)N1CCNc2cc(Oc3ccc(-c4ccccc4)cc3)ccc2S1(=O)=O
3 nM | > 4950 nM | 23 nM | – | – | C[C@H](C(=O)NO)N1CCNc2cc(Oc3ccccc3)ccc2S1(=O)=O
